From patent US20080146555A1, “Uses of Kinase Inhibitors and Compositions Thereof” (GPC Biotech, Inc, priority 2004, published 2008)
Counter-ions that a name gives are not always drawn. Like-named read-outs stand apart in the source and are kept apart here.

Key:
Cdk7 = Cdk7 (Homo sapiens, UniProt P50613); experiment: Cdk7 inhibition; assay type: biochemical
Text: Further inhibition results for subject compounds of the invention against other CDKs and further kinases are shown in Table 5, Table II and described in Example 6.
Table 3, Table 4, Table 5 and Table II show the results obtained for inhibition of a broad range of such kinases for subject compounds of the invention.

Yes = target: T1, Yes (Homo sapiens, UniProt P07947); experiment: Yes kinase assay; assay type: biochemical
T1 construct: purchased Upstate 14-478
Experimental: • 1. 2.5× Reaction Buffer: 20 mM MOPS, 0.5 mM EDTA. • 2. Enzyme Dilution Buffer (EDB): 20 mM MOPS pH 7.0, 1 mM EDTA, 0.01% Brij-35, 5% glycerol, 0.1% β-mercaptoethanol, 1 mg/ml BSA. • 3. Yes, active: Dilute to 0.4 ng-4 ng/μl with EDB. Use 2.5 μl per assay point. • 4. Poly(Glu-4-Tyr) substrate: Prepare a 1 mg/ml stock solution. Use 2.5 μl per assay point for a final concentration of 0.1 mg/ml per assay point. • 5. [γ-^32P]ATP: Stock 1 mCi/100 μl (3000 Ci/mmol, obtained from PerkinElmer, Cat. # BLU002A). Make 10 μl aliquots (100 μCi/vial). Before starting the assay, dilute an aliquot to 1 μCi/μl with 90 μl of 75 mM MgCl2 and 500 μM cold ATP in 20 mM MOPS, pH 7.2, 25 mM β-glycerol phosphate, 5 mM EGTA, 1 mM sodium orthovanadate, 1 mM dithiothreitol.
• 1. Add 10 μl of 2.5× Reaction Buffer per assay. • 2. Add 2.5 μl of Poly(Glu-4-Tyr) substrate (0.1 mg/ml). • 3. Add 2.5 μl of Yes, active (1 ng-10 ng). • 4. Add […] of the diluted [γ-^32P]ATP solution. • 5. Incubate for 10 minutes at 30° C. • 6. Transfer a 20 μl aliquot onto the center of a 2 cm×2 cm P81 paper. • 7. Wash the assay squares three times for 5 minutes with 0.75% phosphoric acid. • 8. Wash the assay squares once for 5 minutes with acetone. • 9. Transfer the assay squares to vial and add 5 ml scintillation cocktail. • 10. Read in scintillation counter. Compare cpm of enzyme samples to cpm of control samples that contain background control.

Lck = target: T2, Lck (Homo sapiens, UniProt P06239); experiment: Lck kinase assay; assay type: biochemical
T2 construct: purchased Upstate 14-442
Experimental: • 1. Assay Buffer: 200 mM Tris-HCl pH 7.5, 0.4 mM EGTA, 0.4 mM sodium orthovanadate. • 2. Enzyme Dilution Buffer (EDB): 20 mM MOPS, pH 7.5, 1 mM EDTA, 0.01% Brij-35, 5% glycerol, 0.1% β-mercaptoethanol, 1 mg/ml BSA. • 3. Lck, active: Dilute to 10-100 ng/μl with EDB. Use 2.5 μl per assay point. • 4. Src Substrate Peptide (Catalog #12-140): Prepare a 2.5 mM stock with sterile, distilled water. Use 2.5 μl per assay point for a final concentration of 250 μM per assay. • 5. Magnesium/ATP Cocktail (Catalog #20-113): 500 μM cold ATP and 75 mM magnesium chloride in 20 mM MOPS, pH 7.2, 25 mM β-glycerophosphate, 5 mM EGTA, 1 mM Na3VO4, 1 mM dithiothreitol. • 6. [γ-^32P]ATP: Stock 1 mCi/100 μl (3000 Ci/mmol, obtained from PerkinElmer, Catalog #BLU002A). Make 10 μl aliquots (100 μCi/vial). Before starting the assay, dilute the Magnesium/ATP Cocktail 1:1 with sterile, distilled water. Then dilute an aliquot of [γ-^32P]ATP to 1 μCi/μl with 90 μl of the diluted Magnesium/ATP Cocktail. […]
• 1. Add 6.25 μl of Assay Buffer per assay. • 2. Add 2.5 μl (25-250 ng) of Lck, active. • 3. Add 2.5 μl Src Substrate peptide (250 μM). • 4. Add 3.75 μl distilled water. • 5. Add 10 μl of the diluted [γ-^32P]ATP solution. • 6. Incubate for 10 minutes at 30° C. • 7. Transfer a 20 μl aliquot onto the center of a 2 cm×2 cm P81 paper. • 8. Wash assay squares five times with 0.75% phosphoric acid for 5 minutes per wash. • 9. Wash assay squares once with acetone for 5 minutes. • 10. Transfer assay squares to a scintillation vial and add 5 ml scintillation cocktail. • 11. Read in scintillation counter. Compare cpm of enzyme samples to cpm of control samples that contain no substrate (background control).

1A9-PTX10 = experiment: SRB cytotoxicity, tubulin mutated paclitaxel-resistant cells; assay type: cell-based, human; settings: for IC50: Homo sapiens, 1A9/ptx-10, 72 h, SRB; for RR (relative resistance) 1A9-PTX10 vs 1A9: ratio of mean IC50 resistant/sensitive
Experimental: In these experiments, the P-glycoprotein expressing NCI-Adr resistant subline (Vickers et al., 1989. Mol Endocrinology 3 (1):157-164) was used. […] Briefly, cells were plated in 96 well dishes 24 hours prior to compound addition. Where noted, they were exposed to verapamil for 4 hours prior to compound addition and then throughout the treatment period (72 hours). The assay was terminated with the addition of cold TCA to a final concentration of 10% and the plates were incubated for one hour at 4° C. The plates were then washed 5 times with water and 100 μl of a Sulforhodamine B solution (4%) was added to each well. The plate was then incubated for 10 minutes at room temperature before removal of unbound dye by washing with 1% acetic acid.
The tubulin mutated, paclitaxel-resistant human ovarian carcinoma cell line 1A9-PTX10 and its parental paclitaxel-sensitive cell line 1A9 were derived from the A2780 human ovarian carcinoma cell line (J Biol Chem (1997) 272, 17118-17124).

A129 cp80 = experiment: SRB cytotoxicity, cisplatin resistant cells; assay type: cell-based, human; settings: for IC50: Homo sapiens, 72 h, SRB
[1] = read-out: YES1 Inhibition (IC50)
[2] = read-out: LCK Inhibition (IC50)

T1 sequence (P07947 whole entry): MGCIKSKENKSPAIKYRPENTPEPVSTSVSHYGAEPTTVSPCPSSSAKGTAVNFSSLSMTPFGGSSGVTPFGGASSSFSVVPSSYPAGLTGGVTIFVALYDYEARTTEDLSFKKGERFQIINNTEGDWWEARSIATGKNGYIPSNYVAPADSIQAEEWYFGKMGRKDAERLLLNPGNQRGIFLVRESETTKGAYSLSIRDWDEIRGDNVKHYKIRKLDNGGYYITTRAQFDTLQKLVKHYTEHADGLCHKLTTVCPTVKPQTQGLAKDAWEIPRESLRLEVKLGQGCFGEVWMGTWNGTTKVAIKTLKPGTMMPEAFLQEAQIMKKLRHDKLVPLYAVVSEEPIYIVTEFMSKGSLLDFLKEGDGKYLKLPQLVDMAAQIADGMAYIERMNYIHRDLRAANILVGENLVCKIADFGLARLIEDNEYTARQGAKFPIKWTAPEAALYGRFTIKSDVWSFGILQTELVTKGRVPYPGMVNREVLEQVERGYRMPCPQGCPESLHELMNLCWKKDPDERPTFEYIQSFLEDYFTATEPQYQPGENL
T2 sequence (P06239 whole entry): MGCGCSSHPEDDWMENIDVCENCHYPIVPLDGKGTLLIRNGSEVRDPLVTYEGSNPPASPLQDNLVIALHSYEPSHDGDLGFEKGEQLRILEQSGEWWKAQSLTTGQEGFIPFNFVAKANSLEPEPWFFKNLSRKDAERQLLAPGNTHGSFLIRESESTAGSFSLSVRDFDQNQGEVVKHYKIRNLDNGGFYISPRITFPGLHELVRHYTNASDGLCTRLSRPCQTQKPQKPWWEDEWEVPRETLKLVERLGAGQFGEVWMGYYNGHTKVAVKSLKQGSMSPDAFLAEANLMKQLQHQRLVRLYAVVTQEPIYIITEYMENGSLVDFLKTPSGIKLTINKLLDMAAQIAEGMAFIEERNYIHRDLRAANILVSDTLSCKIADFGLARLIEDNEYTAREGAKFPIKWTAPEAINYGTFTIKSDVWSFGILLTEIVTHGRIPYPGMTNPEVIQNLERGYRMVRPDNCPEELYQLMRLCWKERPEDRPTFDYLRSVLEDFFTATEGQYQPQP
Cdk7, sequence (P50613 whole entry, species assumed): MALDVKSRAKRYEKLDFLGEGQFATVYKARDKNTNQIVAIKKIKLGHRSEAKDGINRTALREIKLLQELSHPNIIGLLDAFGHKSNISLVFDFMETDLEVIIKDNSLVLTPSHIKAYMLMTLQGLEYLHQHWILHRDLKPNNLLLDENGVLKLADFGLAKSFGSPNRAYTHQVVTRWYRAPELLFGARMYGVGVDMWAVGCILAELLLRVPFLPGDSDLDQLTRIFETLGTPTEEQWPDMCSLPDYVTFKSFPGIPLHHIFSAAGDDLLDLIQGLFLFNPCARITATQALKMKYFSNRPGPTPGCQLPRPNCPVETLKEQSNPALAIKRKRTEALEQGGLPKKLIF
Cdk7, sequence (P51946 whole entry partner, species assumed): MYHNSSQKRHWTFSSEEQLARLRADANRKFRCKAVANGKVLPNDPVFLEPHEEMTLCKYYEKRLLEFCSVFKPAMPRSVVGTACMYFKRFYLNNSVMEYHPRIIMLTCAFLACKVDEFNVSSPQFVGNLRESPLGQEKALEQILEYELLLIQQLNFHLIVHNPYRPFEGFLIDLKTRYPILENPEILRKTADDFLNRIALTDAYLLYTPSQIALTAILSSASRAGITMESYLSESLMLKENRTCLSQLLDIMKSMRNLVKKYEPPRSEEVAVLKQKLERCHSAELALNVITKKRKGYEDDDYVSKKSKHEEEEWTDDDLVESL
Cdk7, sequence (P51948 whole entry partner, species assumed): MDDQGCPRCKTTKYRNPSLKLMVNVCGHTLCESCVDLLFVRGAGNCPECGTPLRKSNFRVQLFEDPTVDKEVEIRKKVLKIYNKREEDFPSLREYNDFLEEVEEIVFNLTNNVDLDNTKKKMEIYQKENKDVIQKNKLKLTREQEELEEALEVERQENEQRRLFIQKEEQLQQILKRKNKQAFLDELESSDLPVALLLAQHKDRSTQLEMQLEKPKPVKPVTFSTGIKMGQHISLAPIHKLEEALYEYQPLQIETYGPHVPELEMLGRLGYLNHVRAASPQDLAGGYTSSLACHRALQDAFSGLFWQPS

| Structure (SMILES) | IC50 (Cdk7) | IC50 (Yes; kinase panel, 10 μM ATP, read-out: Yes IC50) | IC50 (Yes; [1]) | IC50 (Lck; kinase panel, 10 μM ATP, read-out: Lck (Lymphocyte kinase) IC50) | IC50 (Lck; [2]) | IC50 (1A9-PTX10) | RR (relative resistance) 1A9-PTX10 vs 1A9 (1A9-PTX10) | RR (relative resistance) A129 cp80 vs A129 (A129 cp80) | IC50 (A129 cp80) |
| --- | --- | --- | --- | --- | --- | --- | --- | --- | --- |
| COCCN1CCN(Cc2ccc(-c3n[nH]c4c3C(=O)c3c(NC(=O)NN5CCOCC5)cccc3-4)cc2)CC1 [Compound B16, N-[3-(4-{[4-(2-methoxyethyl)piperazinyl]methyl}phenyl)-4-oxoindeno[2,3-d]pyrazol-5-yl](morpholin-4-ylamino)carboxamide dihydrochloride] | < 0.05 µM | < 0.1 µM | < 0.05 µM | < 0.1 µM | < 0.05 µM | 0.025 µM | 2.3 | 0.5 | 0.0047 µM |
| CC(C)N1CCN(C(=O)COc2ccc(-c3n[nH]c4c3C(=O)c3c(NC(=O)NN5CCOCC5)cccc3-4)cc2)CC1 [Compound A37] | < 0.5 µM |  | < 0.05 µM |  | < 0.05 µM | 0.0443 µM | 3.3 | 0.7 | 0.004 µM |
